Reference: patent publication US8273719B2, “Wrinkle-diminishing agent” (Kao Corporation, priority 2004, dated 2012)

System: skin which had suffered from photoaging
Test: Wrinkle alleviating effect on photoaged (UVA/UVB irradiated) hairless mice: wrinkle score, dermis collagen content, epidermis thickness
Format: in vivo
Source text: The wrinkle alleviating effect of the antiwrinkle agent of the present invention when applied to a skin which had suffered from photoaging was examined by the following test method. A group of ten hairless mice which were ten weeks old at the start of the test was used. Photoaging was caused by irradiating the mice with UVA and UVB once a day and five times per week for continuous eight weeks. A UVA dose of 20 J/cm^2 was increased to 25 J/cm^2 and then 30 J/cm^2 every week, and a UVB dose of 20 mJ/cm^2 was increased to 30 mJ/cm^2 and then 40 mJ/cm^2 every week, and the respective maximum doses were used on and after the third week. The wrinkle alleviating effect was evaluated in respect of the wrinkle score, the dermis collagen content and the epidermis thickness. […] Specifically, the wrinkles were macroscopically evaluated with respect to the size and depth and rated in 4 stages: “large and deep wrinkles can be recognized” was rated 3, “some wrinkles can be recognized” was rated 2, “any wrinkles cannot be recognized” was rated 1, and “normal and fine skin is observed” was rated 0. Whole skin was sampled and homogenized by a POLYTRON Homogenizer (manufactured by KINEMATICA AG), and then the collagen fraction was extracted and subjected to acid hydrolysis followed by quantitative determination of a hydroxyproline content using an amino acid analyzer (manufactured by JASCO Corporation). […]

Row | SMILES | Epidermis thickness, effect compared to Comparative Example 1 (base only) (result in words) | Wrinkle alleviating effect on the wrinkles caused by the photoaging (overall conclusion in words)
1 | C=CCc1ccc(O[C@@H]2O[C@H](CO)[C@@H](O)[C@H](O)[C@H]2O)c(OC)c1 [eugenyl glycoside, eugenyl-β-D-glucoside] | had no such an action | 
2 | C=CCc1ccc(O)c(OC)c1 [eugenol] |  | does not have a wrinkle alleviating effect
